{"source": "patent US20130123201A1", "about": "“MODULATION OF CYTOKINE-INDUCED CHRONIC INFLAMMATORY RESPONSES” (UNIVERSITY OF MANITOBA, priority 2010, published 2013)", "key": {"[1]": {"system": "Human fibroblast-like synovial (FLS) cells", "experiment": "ELISA of chemokine production in FLS tissue culture supernatants", "type": "cell-based", "description": "ELISA immunoassay: Tissue culture supernatants were centrifuged at 1500× g for 5-7 min to obtain cell-free samples and the aliquots were stored at −20° C. until further use. Production of chemokine Gro-α was monitored in the tissue culture supernatants by ELISA employing human Gro-α DuoSet (R&D Systems Inc.) as per the manufacturer's instructions. Production of cytokine TNF-α was monitored in the tissue culture supernatants using specific antibody pairs from eBioscience, Inc., and production of IL-8 was monitored using specific antibody pairs from R&D Systems, Inc., as per the manufacturer's instructions. The concentration of the cytokines or chemokines in the tissue culture supernatants was evaluated by establishing a standard curve with serial dilutions of the recombinant human cytokines or chemokines as required.\nELISA immunoassay: Tissue culture supernatants were centrifuged at 1500× g for 5-7 min to obtain cell-free samples and the aliquots were stored at −20° C. until further use. Production of chemokine Gro-α was monitored in the tissue culture supernatants by ELISA employing human Gro-α DuoSet (R&D Systems Inc.) per the manufacturer's instructions. […] The concentrations of the cytokines or chemokines in the tissue culture supernatants were evaluated by establishing a standard curve with serial dilutions of the recombinant human cytokines or chemokines as required."}, "[2]": {"system": "NF-κB in rabbit synoviocyte HIG-82 cells", "experiment": "NF-κB-reporter luminescence assay", "type": "cell-based", "conditions": "rabbit synovial fibroblast cell line HIG-82, 4 and 6 hr", "description": "NF-κB-reporter luminensence assay: Rabbit synoviocyte HIG-82 cells were transiently transfected with pNFκB-MetLuc2-Reporter Vector (Clontech laboratories Inc., Mountain View, Calif., USA) or the provided control vector as per the manufacturer's instructions. Various stimulants were added to the transfected cells in culture media containing 1% (v/v) FBS. The cells were stimulated with either recombinant human IL-32 or IL-17, and in parallel with known activators of NF-κB such as pro-inflammatory recombinant human cytokines TNF-αand IL-1β, or bacterial lipopolysaccharide (LPS), for 4 or 6 hr. The activation of NF-κB was monitored by employing the Ready-To-Glow Secreted NF-κB Luciferase Reporter Assay (Clontech) as per the manufacturer's instructions.\nNF-κB-reporter luminensence assay: In order to monitor direct NF-κB activation in synoviocytes, a rabbit synoviocyte cell line, HIG-82 (ATCC® CRL-1832) was transiently transfected with pNFκB-MetLuc2-Reporter Vector (Clontech laboratories Inc., Mountain View, Calif., USA) or the provided control vector as per the manufacturer's instructions. Various stimulants were added to the transfected cells in culture media containing 1% (v/v) FBS. […] The activation of NF-κB was monitored by employing the Ready-To-Glow Secreted NF-κB Luciferase Reporter Assay (Clontech Laboratories Inc.) per the manufacturer's instructions."}, "[3]": {"system": "NF-κB subunits p50 and p65", "experiment": "Translocation of NF-κB subunits p50 and p65 (nuclear extract immunoblots)", "type": "cell-based, human", "conditions": "20 ng/mL, 30 mins", "description": "Translocation of NF-κB subunits p50 and p65: Nuclear extracts were prepared employing NE-PER® extraction reagents (Thermo Fisher Scientific, Toronto, ON, Canada) as per the manufacturer's instructions. In order to monitor direct NF-κB activation, equivalent nuclear extracts (5-8 μg) were resolved on 4-12% NuPAGE® Bis-Tris gels (Invitrogen Canada Inc.) and transferred to nitrocellulose membranes. The membranes were blocked with TBST containing 3% fish skin gelatin (Sigma-Aldrich), and probed with antibodies specific for either NE-κB subunit p50 or p65, in TBST containing 1% fish gelatin. The membranes were also probed with antibody to human histone protein HADC-1 to assess the equivalent protein loading. […]\nThe presence of common targets in macrophages was supported by the observation that both IL-32 and IL-17 induced similar level of IL-23 mRNA expression (FIG. 8A) and chemokine IL-8 production in human macrophage-like THP-1 cells (FIG. 7C). […] Therefore to further evaluate similarity of induced downstream response in synovial fibroblasts, this study analyzed the direct activation of transcription factor NF-κB. […] We also monitored the activity of NF-κB using a luminescence assay in-vitro employing rabbit synovial fibroblast cell line (HIG-82) in the presence of IL-32 and IL-17. The activation of NF-κB was monitored after 4 and 6 hr of treatment. […]"}}, "note": "“Also recorded” adds a separate entry of the source.", "data": [{"substance": "IL-17: Recombinant human cytokine IL-17A/F from eBioscience, used as stimulant", "values": [{"measurement": "Chemokine Gro-α production", "setting": "[1]", "result": "robust induction; also recorded: robust Gro-α production"}, {"measurement": "Effect on TNF-α-induced chemokine Gro-α production", "setting": "[1]; TNF-α 10 ng/mL plus cytokine 20 ng/mL, 24 hr", "result": "synergistically enhanced"}, {"measurement": "Activation of transcription factor NF-κB", "setting": "[2]", "result": "induced direct activation; also recorded: activated"}, {"measurement": "Nuclear translocation of NF-κB p50", "setting": "[3]; FLS cells and macrophage-like THP-1 cells", "result": "mediated nuclear translocation"}, {"measurement": "Nuclear translocation of NF-κB subunit p65", "setting": "[3]; FLS cells and macrophages", "result": "mediated"}]}]}
